US20200249194A9, “PROSTATE PROTEASE NANOSENSORS AND USES THEREOF” (Massachusetts Institute of Technology, priority 2017, published 2020)
Entries after “also recorded” stand apart in the source; their conditions may differ. Non-standard residues stand in square brackets, D forms with d. Primed or numbered codes have the meaning given here. No end group written: not given here. *: point of attachment. 5FAM = O=C1OC2(c3ccc(O)cc3Oc3cc(O)ccc32)c2ccc(C(=O)*)cc21; Biotin = O=C1N[C@H]2[C@H](CS[C@H]2CCCCC(=O)*)N1; CPQ2 = quencher paired with 5FAM as FRET pair; PEG2′ = not defined here; PEG = not defined here; QSY21 = QSY21 quencher; Cy5 = Cy5 fluorophore

Assays:
serine hydrolase = tested on: serine hydrolase; design: species or system human
[1] = tested on: PC3 cell line supernatant; experiment: Cleavage of 19-plex fluorogenic ABNs in PC3 supernatant; format: cell-based, human; settings: for overall cleavage activity in the presence of inhibitor: PC3 supernatant, 19-plex fluorogenic ABNs; for cleavage by PC3 supernatant compared with 22Rv1: in vitro, fluorogenic
[2] = tested on: 22Rv1 cell line supernatant; experiment: Cleavage of 19-plex fluorogenic ABNs in 22Rv1 supernatant; format: cell-based, human
[3] = tested on: 22Rv1 xenograft tumor homogenates; experiment: Protease activity of tumor homogenates ex vivo; format: biochemical, mice
tumor protease activity = experiment: In vivo protease activity imaging study; design: species or system mice; settings: red-shifted FRET pair
MMP13, uPA, KLK, MMP = experiment: Substrate cleavage assay of protease nanosensors (FIG. 12A); format: biochemical
Method: Xenograft model 22Rv1 (a non-metastatic tumor, referred to as Tnon-met) is derived from a primary tumor. […] PC3 (a metastatic tumor, referred to as Tmet) is undifferentiated, AR^−, PSA^−, and metastasizes to lymph node (LN), lung, and bone. Multiplexed sensors were selected to classify Tmet from Tnon-met (FIGS. 7A-7F). A substrate cleavage assay was performed (FIG. 12A) with several protease nanosensors (FIGS. 9A-9B and FIGS. 12A-12B).

[4] = tested on: 15 selected proteases (MPs and SPs); Thrombin, Factor Xa and human plasma as negative filters; experiment: Cleavage of FRET-paired peptide substrates (free and PEG-coupled) by recombinant proteases; format: biochemical
Text: With an identified set of MPs and SPs, a panel of substrates was developed to measure their activity. A panel of 58 FRET-paired peptide substrates (labeled T1-58-Q, where Q denotes quenched Table 6) was screened for cleavage by the 15 selected proteases. To account for background cleavage in circulation, Thrombin, Factor Xa, and human plasma were included as negative filters. The library comprised peptides with diverse physiochemical properties to provide broad coverage, and kinetic parameters of cleavage of the FRET-paired substrates by recombinant proteases were measured and z-score normalized by protease. Substrates were grouped by hierarchical clustering to remove substrates with overlapping cleavage patterns, as they would not provide any orthogonal insight, resulting in a down-selected panel of 26 substrates.
For use in vivo, the peptides may be conjugated to a nanoparticle having robust accumulation in the prostate abilities. Thus, a biodistribution study was performed with three fluorophore-labeled carrier candidates and tested for their biodistribution following i.v. injection. […] Thus, the peptide substrates were conjugated to a PEG core and their cleavage profile was tested. […] Further mechanistic understanding of this variability may improve the development of ABN technology by identifying optimal surface presentation. […] Some substrates were cleaved specifically by a single protease on the biomarker list, whereas others were cleaved by multiple or all members of the enzyme family tested (Table 7).

MMP activity = experiment: FRET peptide substrate-cleavage assay in prostate tumor and NAT tissue samples; format: biochemical; settings: human prostate tumor and matched NAT
Method: An assay was developed to measure protease activity in tissue samples. The mouse samples were excised, frozen in LN2, homogenized in PBS at 200 mgs/mL, and incubated with Q7 (FIG. 14A). In situ tissue zymography assays were additionally developed for frozen sections. Five sets of clinical human samples (both tumor and normal adjacent) were examined (FIG. 14B). The remaining fraction was tested on FRET substrates. Human sample cleavage was analyzed with substrate cleavage assays (Table 3). It was observed that many substrates are differentially cleaved in cancer tissue versus normal adjacent tissue.
As MP ABPs are less robust than serine ABPs, a FRET peptide substrate-cleavage assay was used to assay for MMP activity in the same tissue set evaluated by SOMAscan. Given the minimal tissue material available, each sample was evaluated with only a subset of substrates in duplicate. Multiple substrates were cleaved to a greater extent in tumor samples.

PC3 xenografts = experiment: Urinary reporter signal of ABNs in PC3 xenograft-bearing mice; format: in vivo; settings: for classification of PC3-bearing from 22Rv1-bearing mice: ROC curve analysis; for relative urine signal, PC3 compared with 22Rv1: 19-plex, mass-encoded reporters, xenografts ~100 mm3
Method: Having achieved this proof-of-concept urine monitoring of protease activity with a single substrate, the entire ABN library was tested in vivo with an emphasis on identifying reporters to differentiate mice bearing more aggressive (PC3) versus less aggressive (22Rv1) xenografts. To quantify cleavage of the entire library in urine, the substrates were barcoded using a next generation of mass-encoded reporters built upon the isobar coded reporters method (Kwong et al., Nat Biotechnol 31:63-70 (2013)). This […] sensor library enables increased multiplexing by uniquely labeling each peptide with stable 13C and 15N atoms, allowing for quantitation of reporter barcodes across a large dynamic range using liquid chromatography-tandem mass spectrometry (Table 8). To account for variability in glomerular filtration rate, urine volume, and hydration state, a free reporter (not coupled to PEG) was co-injected. The 19-plex ABN library was serially injected i.v. to PC3 tumor-bearing mice over the course of tumor development. […] Next, the ability of the 19-plex library to classify PC3 from 22Rv1 tumor-bearing mice was sought to be determined. Using the mass-encoded reporters to examine the cleavage of each individual sensor, an early time point was focused on and it was observed that several substrates were differentially cleaved between animals bearing similarly sized xenografts ( 100 mm3) from the more (PC3) versus less aggressive (22Rv1) cell lines. Overall, the cleavage profile differences between the two cohorts agree with each cell line's protease expression patterns and the substrate specificity of each protease. […] To simplify urinalysis, these ABNs were designed to release biotinylated urinary reporters to enable ELISA-based readouts. […] Additionally, PSA measurements in mice may overestimate its sensitivity, as there is no mouse homolog of PSA (Lundwall et al., Biol Chem 387:243-249 (2006)). It was next tested whether the three-plex iRGD-ABNs could classify distinct prostate cancer tumors. […] Based on ROC curve analysis, the […] ABNs classified the mice bearing the more aggressive PC3-derived tumors as distinct from 22Rv1-bearing mice. […] Differential expression analysis was performed on TCGA data using […]. Survival analysis was performed using cBioPortal. SOMAscan was performed at the Beth Israel Deaconess Medical Center (BIDMC) Genomics Proteomics Core. […] Sigma) at 1 μM in PBS. • Animal Models. All animal studies were approved by Massachusetts Institute of Technology's Committee on Animal Care (CAC) (Protocol 0417-025-20). Four- to six-week-old male NCr nude mice (Taconic) were injected bilaterally with 3.5×10^6 PCa cells per flank in a 1:1 ratio of complete media and Matrigel (354234; Corning). Baseline urine measurement was obtained before xenograft implantation. Histology sectioning and staining was performed at KI Histology Core.

22Rv1 xenografts = experiment: Urinary reporter signal of ABNs in 22Rv1 xenograft-bearing mice; format: in vivo
[5] = PEG-coupled quenched substrate, protease that cleaves it

Molecule: NCCc1ccc(S(=O)(=O)F)cc1 [AEBSF]
- effect of inhibitor on FP-TAMRA labeling (serine hydrolase): mitigated
- overall cleavage activity in the presence of inhibitor [1]: reduced
- overall cleavage activity in the presence of inhibitor [2]: reduced

Molecule: CNC(=O)[C@@H](NC(=O)[C@H](CC(C)C)[C@H](O)C(=O)NO)C(C)(C)C [marimastat]
- overall cleavage activity in the presence of inhibitor [1]: reduced
- T7 sensor cleavage in the presence of inhibitor [3]: diminished
- overall cleavage activity in the presence of inhibitor [2]: reduced

Molecule: (QSY21)-GGPLGVRGKK(Cy5)-(PEG2)-C (QSY21-GGPLGVRGKK(Cy5)[PEG2′]C) [red-shifted FRET paired T7 substrate]
- fluorescence signal, tumor compared with liver (tumor protease activity): greater fluorescence signal in the tumor compared with the liver

Molecule: PB2: protease nanosensor, uPA substrate, SEQ ID NO: 8 (Biotin-EGVNDNEEGFFSARKGGGSGRSANAKGC(PEG); reading uncertain; also: FAM label at residues 15-16, exact place not given here)
- substrate specificity of nanosensor (MMP13, uPA, KLK, MMP): uPA substrate

Molecule: PB13: protease nanosensor, broadly cleaved KLK substrate, SEQ ID NO: 9 (Biotin-EGVNDNEEGFFSARKGSGSKIIGGGC(PEG); reading uncertain; also: TAMRA at positions 15-16)
- substrate specificity of nanosensor (MMP13, uPA, KLK, MMP): broadly cleaved KLK substrate

Molecule: PEG-T7-Q: quenched FRET peptide substrate T7 conjugated to PEG core (5FAM-GGPLGVRGKK(CPQ2)[PEG2′]C; also: conjugated to PEG core, attachment not given here)
- Second hit [4, 5]: MMP26
- Top hit [4, 5]: MMP9

Molecule: PEG-T24-Q: quenched FRET peptide substrate T24 conjugated to PEG core (5FAM-GGLGPKGQTGK(CPQ2)[PEG2′]C; also: conjugated to PEG core, attachment not given here)
- Top hit [4, 5]: MMP13

Molecule: PEG-T39-Q: quenched FRET peptide substrate T39 conjugated to PEG core (5FAM-GGGSGRSANAKGK(CPQ2)[PEG2′]GC; also: conjugated to PEG core, attachment not given here)
- Top hit [4, 5]: uPA

Molecule: T7: MMP-sensing peptide substrate (GPLGVRGK) of ABN library, reporter R3_04 (also: reporter R3_04 attached) [Substrate T7]
- cleavage signal, tumor vs NAT samples (MMP activity): signal was elevated across the majority of tumor samples
- urine signal (PC3 xenografts; 19-plex library, PC3 mice): gave rise to urine signals
- classification of PC3-bearing from 22Rv1-bearing mice (PC3 xenografts; three-plex iRGD-ABNs): did not classify between the two cohorts
- urine signal relative to control animals (PC3 xenografts; three-plex iRGD-ABNs, individual reporter, PC3-bearing): elevated relative to control animals
- urine signal (22Rv1 xenografts; 19-plex library, 22Rv1 mice): gave rise to urine signals
- urinary signal (22Rv1 xenografts; single sensor, biotinylated reporter, 22Rv1 xenograft-bearing mice): increased urinary signal
- urine signal relative to control animals (22Rv1 xenografts; three-plex iRGD-ABNs, individual reporter, 22Rv1-bearing): elevated relative to control animals

Molecule: T24: MMP13 peptide substrate (GGLGPKGQTG) of ABN library, reporter R3_06 (also: reporter R3_06 attached) [Substrate T24]
- relative urine signal, PC3 compared with 22Rv1 (PC3 xenografts): higher relative urine signal change; also recorded: elevated
- cleavage (individual reporter readout), PC3 relative to 22Rv1 (PC3 xenografts; three-plex iRGD-ABNs): significantly greater cleavage
- classification of PC3-bearing from 22Rv1-bearing mice (PC3 xenografts; three-plex iRGD-ABNs): classified
- cleavage by PC3 supernatant compared with 22Rv1 [1]: cleaved differentially
- protease that cleaves the substrate in vitro [4]: MMP13

Molecule: T39: uPA peptide substrate (GGGSGRSANAKG) of ABN library, reporter R3_09 (also: reporter R3_09 attached) [Substrate T39]
- relative urine signal, PC3 compared with 22Rv1 (PC3 xenografts): higher relative urine signal change; also recorded: elevated
- cleavage (individual reporter readout), PC3 relative to 22Rv1 (PC3 xenografts; three-plex iRGD-ABNs): significantly greater cleavage
- classification of PC3-bearing from 22Rv1-bearing mice (PC3 xenografts; three-plex iRGD-ABNs): classified
- cleavage by PC3 supernatant compared with 22Rv1 [1]: cleaved differentially
- protease that cleaves the substrate in vitro [4]: uPA
